Each structure is given as a SMILES string. pEC50, pIC50: −log10 of the molar value.

The target of one assay is T1, Cbl-b (Homo sapiens, UniProt Q13191).
T1 construct: biotin (biotinylated)
In words: Cbl-b probe displacement HTRF binding assay. The settings on record: 0.4 nM biotinylated Cbl-b, 150 nM BODIPY probe. As to the method: The affinity with which compounds of the present disclosure bind to Cbl-b was assessed using probe displacement homologous time resolved fluorescence (HTRF) assays. The assays used a BODIPY™ conjugated probe (Example 54 from WO 2020264398) and biotinylated Cbl-b. The assays were performed in assay buffer consisting of 20 mM Hepes, 150 mM NaCl, 0.01% Triton X-100, 0.5 mM TCEP, 0.01% BSA. On the day of the assay, a 20 point, 1:2 master serial dilution of each compound was prepared in DMSO to span a final concentration range of 10 μM to 0 nM. Two hundred nanoliters of diluted compound was added to each well of a 384-well plate. Fifteen microliters of biotinylated—Cbl-b resuspended in assay buffer were added to each well and the plate incubated for 60 minutes at room temperature prior to addition of 5 μL of BODIPY™ probe in assay buffer. Final assay conditions included 0.4 nM of Cbl-b and 150 nM of BODIPY™ probe. After a further 15 minutes of incubation at room temperature, 5 μl of Streptavidin-Terbium cryptate reagent at 5-fold final concentration was added to each well of the 384-well plate. Binding of a probe to Cbl-b results in an increase of HTRF signal. HTRF signal was measured by Envision plate reader, while competition of a compound of the present disclosure with probe results in a decrease of signal. Percentage maximum activity in each test well was calculated based on DMSO (maximum activity, 0% displacement) and no protein control wells (baseline activity, 100% displacement). Binding affinity was determined from a dose response curve fitted using a standard four parameter fit equation. See Table 3 for data for compounds (Cbl-b Binding (IC50)).
Background: TR-FRET usually uses a lanthanide donor and a delayed reading to cut background.

The next assay deals with Jurkat cells. In words: IL-2 secretion assay in CD3/CD28-activated Jurkat cells (AlphaLISA). It is filed as cell-based, human. The settings on record: Homo sapiens, CD3/CD28 T Cell Activator, 24 h, IL-2 AlphaLISA. As to the method: Certain compounds were also evaluated in an IL-2 secretion assay. On the day of the assay, a 16 point, 1:2 master serial dilution of each compound was prepared in Opti-MEM to span a final concentration range of 10 μM to 300 pM. Assays were setup in CORNING® tissue culture-treated 384-well microplates containing 60 nL of each dilution. Jurkat cells grown in RPMI-1640 supplemented with 10% FBS, 1% Glutamax, and 1% Pen/Strep were collected, resuspended in Opti-MEM. 50,000 cells/well and added to the compound plates. After a short spin (1200 rpm for 1 min), the plates were incubated at 37° C. for 1 hour. The cells were activated by adding 15 μL of IMUNOCULT™ Human CD3/CD28 T Cell Activator (STEMCELL Technologies) diluted in Opti-MEM. After 24 h of incubation at 37° C., aliquots of culture supernatants were transferred to OptiPlate-384 (PerkinElmer) microplates. The level of IL-2 secretion in the supernatants was then determined using the IL-2 (human) AlphaLISA Detection Kit (PerkinElmer) according to the manufacturer's recommendations. The AlphaLISA signal was measured using an EnVision plate reader (PerkinElmer). EC50 values were determined by fitting the data to a standard 4-parameter logistic equation. See Table 3 for data for select compounds (IL-2 Secretion (EC50)).
For orientation: In Alpha technology, singlet oxygen from a donor bead excites a nearby acceptor bead.

T1 sequence (Q13191 whole entry, species assumed): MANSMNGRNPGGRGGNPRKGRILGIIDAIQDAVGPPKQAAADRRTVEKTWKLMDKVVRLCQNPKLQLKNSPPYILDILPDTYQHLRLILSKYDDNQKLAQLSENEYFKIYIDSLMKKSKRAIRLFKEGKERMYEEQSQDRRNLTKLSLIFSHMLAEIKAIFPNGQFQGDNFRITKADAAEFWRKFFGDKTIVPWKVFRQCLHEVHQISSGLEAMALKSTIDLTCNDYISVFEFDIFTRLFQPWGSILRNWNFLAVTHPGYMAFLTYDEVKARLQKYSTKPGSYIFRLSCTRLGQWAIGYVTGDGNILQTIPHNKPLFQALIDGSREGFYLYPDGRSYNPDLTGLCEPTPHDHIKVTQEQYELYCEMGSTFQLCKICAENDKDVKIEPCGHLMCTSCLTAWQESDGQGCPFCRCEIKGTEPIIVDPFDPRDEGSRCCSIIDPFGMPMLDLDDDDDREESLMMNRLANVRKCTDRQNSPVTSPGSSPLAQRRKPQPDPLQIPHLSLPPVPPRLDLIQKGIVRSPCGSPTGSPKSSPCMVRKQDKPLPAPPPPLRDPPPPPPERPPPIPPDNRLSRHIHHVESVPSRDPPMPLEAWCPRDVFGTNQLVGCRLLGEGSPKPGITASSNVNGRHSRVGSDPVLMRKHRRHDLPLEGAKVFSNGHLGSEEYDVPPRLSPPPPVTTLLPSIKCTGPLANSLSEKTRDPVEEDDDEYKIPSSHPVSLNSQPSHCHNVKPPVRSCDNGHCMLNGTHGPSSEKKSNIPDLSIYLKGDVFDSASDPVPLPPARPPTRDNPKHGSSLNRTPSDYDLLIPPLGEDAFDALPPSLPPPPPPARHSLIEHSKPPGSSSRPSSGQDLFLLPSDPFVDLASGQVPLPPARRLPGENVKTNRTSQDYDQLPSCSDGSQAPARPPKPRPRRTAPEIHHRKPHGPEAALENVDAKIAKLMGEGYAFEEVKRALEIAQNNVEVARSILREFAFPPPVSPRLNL

Consider `Cn1cnnc1-c1cc(F)ccc1-c1cc(C2CC2)nc(-n2cc(C(F)(F)F)c3c(C#N)n[nH]c3c2=O)c1` [Example 26, 6-{6-cyclopropyl-4-[4-fluoro-2-(4-methyl-4H-1,2,4-triazol-3-yl)phenyl]-2-pyridyl}-7-oxo-4-(trifluoromethyl)-1,6-dihydro-1,2,6-triaza-3-indenecarbonitrile], for which, on Cbl-b, the pIC50 (in general, the IC50 on a negative log10 scale, so that one unit is a factor of ten) is > 7.00. Further, in the assay on Jurkat cells, the negative-log EC50 (pEC50) (as a rule, the negative decadic logarithm of the EC50, by convention in mol/L) was 5.30 to 6.00.

With `Cn1cnnc1-c1cc(F)ccc1-c1cc(C2CC2)nc(-n2cc(C#N)c3c(C#N)n[nH]c3c2=O)c1` [Example 27, 6-{6-cyclopropyl-4-[4-fluoro-2-(4-methyl-4H-1,2,4-triazol-3-yl)phenyl]-2-pyridyl}-7-oxo-1,6-dihydro-1,2,6-triaza-3,4-indenedicarbonitrile], the pIC50 at Cbl-b is 6.00 to 7.00. The pEC50 with Jurkat cells was < 5.30.

For `COCCNCc1cc2ncn(-c3cc(-c4ccc(F)cc4-c4nncn4C)cc(C4CC4)n3)c(=O)c2[nH]1` [Example 28, 3-[6-cyclopropyl-4-[4-fluoro-2-(4-methyl-1,2,4-triazol-3-yl)phenyl]pyridin-2-yl]-6-[(2-methoxyethylamino)methyl]-5H-pyrrolo[3,2-d]pyrimidin-4-one], the pIC50 at Cbl-b was > 7.00. For the same compound, the pEC50 in the assay on Jurkat cells is > 7.00.

Regarding `Cn1cnnc1-c1cc(F)ccc1-c1cc(C2CC2)nc(-n2cnc3cc(CNC4(C)CCC4)[nH]c3c2=O)c1` [Example 29, 3-[6-cyclopropyl-4-[4-fluoro-2-(4-methyl-1,2,4-triazol-3-yl)phenyl]pyridin-2-yl]-6-[[(1-methylcyclobutyl)amino]methyl]-5H-pyrrolo[3,2-d]pyrimidin-4-one], the negative logarithm of the IC50 (pIC50) on Cbl-b was > 7.00. Further, the pEC50 in the assay on Jurkat cells is > 7.00.

As to `Cn1cnnc1-c1cc(F)ccc1-c1cc(C2CC2)nc(-n2cnc3cc(CNCCOC(F)(F)F)[nH]c3c2=O)c1` [Example 30, 6-{6-cyclopropyl-4-[4-fluoro-2-(4-methyl-4H-1,2,4-triazol-3-yl)phenyl]-2-pyridyl}-2-[(2-trifluoromethoxyethylamino)methyl]-1,6-dihydro-1,4,6-triaza-7-indenone], the pIC50 on Cbl-b is > 7.00. In addition, in the assay with Jurkat cells, the pEC50 was 6.00 to 7.00.

For the compound `CCOCCNCc1cc2ncn(-c3cc(-c4ccc(F)cc4-c4nncn4C)cc(C4CC4)n3)c(=O)c2[nH]1` [Example 31, 6-{6-cyclopropyl-4-[4-fluoro-2-(4-methyl-4H-1,2,4-triazol-3-yl)phenyl]-2-pyridyl}-2-[(2-ethoxyethylamino)methyl]-1,6-dihydro-1,4,6-triaza-7-indenone], at Cbl-b, the pIC50 is > 7.00. Also, in the assay on Jurkat cells, the pEC50 is > 7.00.

For the compound `COC1CN(Cc2cc3ncn(-c4cc(-c5ccc(F)cc5-c5nncn5C)cc(C5CC5)n4)c(=O)c3[nH]2)C1` [Example 32, 6-{6-cyclopropyl-4-[4-fluoro-2-(4-methyl-4H-1,2,4-triazol-3-yl)phenyl]-2-pyridyl}-2-[(3-methoxy-1-azetidinyl)methyl]-1,6-dihydro-1,4,6-triaza-7-indenone], the pIC50 on Cbl-b is > 7.00. Besides, the pEC50 in the assay on Jurkat cells is 6.00 to 7.00.

On to `Cn1cnnc1-c1cc(F)ccc1-c1cc(C2CC2)nc(-n2cnc3cc(CNCC(F)(F)F)[nH]c3c2=O)c1` [Example 33, 6-{6-cyclopropyl-4-[4-fluoro-2-(4-methyl-4H-1,2,4-triazol-3-yl)phenyl]-2-pyridyl}-2-[(2,2,2-trifluoroethylamino)methyl]-1,6-dihydro-1,4,6-triaza-7-indenone], for which, on Cbl-b, the pIC50 was > 7.00. In addition, the pEC50 with Jurkat cells was 6.00 to 7.00.

Turning to `COCCN(C)Cc1cc2ncn(-c3cc(-c4ccc(F)cc4-c4nncn4C)cc(C4CC4)n3)c(=O)c2[nH]1` [Example 34, 3-[6-cyclopropyl-4-[4-fluoro-2-(4-methyl-1,2,4-triazol-3-yl)phenyl]pyridin-2-yl]-6-[[2-methoxyethyl(methyl)amino]methyl]-5H-pyrrolo[3,2-d]pyrimidin-4-one], on Cbl-b, the pIC50 was > 7.00. Also, the negative logarithm of the EC50 (pEC50) in the assay on Jurkat cells was > 7.00.

Consider `COCCN(Cc1cc2ncn(-c3cc(-c4ccc(F)cc4-c4nncn4C)cc(C4CC4)n3)c(=O)c2[nH]1)CC(F)(F)F` [Example 35, 6-{6-cyclopropyl-4-[4-fluoro-2-(4-methyl-4H-1,2,4-triazol-3-yl)phenyl]-2-pyridyl}-2-{[(2-methoxyethyl)(2,2,2-trifluoroethyl)amino]methyl}-1,6-dihydro-1,4,6-triaza-7-indenone], for which, on Cbl-b, the pIC50 is > 7.00. This compound also had a pEC50 in the assay on Jurkat cells of 6.00 to 7.00.

On to `COCCNC(c1cc2ncn(-c3cc(-c4ccc(F)cc4-c4nncn4C)cc(C4CC4)n3)c(=O)c2[nH]1)C(F)(F)F` (stereo not drawn) [Example 36, 6-{6-cyclopropyl-4-[4-fluoro-2-(4-methyl-4H-1,2,4-triazol-3-yl)phenyl]-2-pyridyl}-2-[2,2,2-trifluoro-1-(2-methoxyethylamino)ethyl]-1,6-dihydro-1,4,6-triaza-7-indenone], for which the pIC50 at Cbl-b is > 7.00. The compound further showed a pEC50 in the assay with Jurkat cells of 6.00 to 7.00.

With `Cn1cnnc1-c1cc(C#N)ccc1-c1cc(C2CC2)nc(-n2cc(C3CC3)c3cc(CNC4(C)CCC4)[nH]c3c2=O)c1` [Example 37, 4-(6-cyclopropyl-2-{4-cyclopropyl-2-[(1-methylcyclobutylamino)methyl]-7-oxo-1,6-dihydro-1,6-diaza-6-indenyl}-4-pyridyl)-3-(4-methyl-4H-1,2,4-triazol-3-yl)benzonitrile], the negative logarithm of the IC50 (pIC50) at Cbl-b was > 7.00. Moreover, the pEC50 in the assay with Jurkat cells was > 7.00.

`COCCOCc1cc2ncn(-c3cc(-c4ccc(F)cc4-c4nncn4C)cc(C4CC4)n3)c(=O)c2[nH]1` [Example 38, 6-{6-cyclopropyl-4-[4-fluoro-2-(4-methyl-4H-1,2,4-triazol-3-yl)phenyl]-2-pyridyl}-2-[(2-methoxyethoxy)methyl]-1,6-dihydro-1,4,6-triaza-7-indenone]: on Cbl-b, the pIC50 was > 7.00. The pEC50 with Jurkat cells was 6.00 to 7.00.

In the case of `Cn1cnnc1-c1cc(F)ccc1-c1cc(C2CC2)nc(-n2cc(C(F)(F)F)c3nc(C4CC4)[nH]c3c2=O)c1` [Example 39, 2-cyclopropyl-5-[6-cyclopropyl-4-[4-fluoro-2-(4-methyl-1,2,4-triazol-3-yl)phenyl]pyridin-2-yl]-7-(trifluoromethyl)-3H-imidazo[4,5-c]pyridin-4-one], the pIC50 at Cbl-b was > 7.00. Also, the pEC50 in the assay on Jurkat cells was > 7.00.

Take `Cn1cnnc1-c1cc(F)ccc1-c1cc(C2CC2)nc(-n2cc(C(F)(F)F)c3nc(C4CCC4)[nH]c3c2=O)c1` [Example 40, 2-Cyclobutyl-5-[6-cyclopropyl-4-[4-fluoro-2-(4-methyl-1,2,4-triazol-3-yl)phenyl]pyridin-2-yl]-7-(trifluoromethyl)-3H-imidazo[4,5-c]pyridin-4-one]: the pIC50 at Cbl-b is > 7.00. In addition, the pEC50 with Jurkat cells was > 7.00.

Regarding `COCCCc1nc2c(C(F)(F)F)cn(-c3cc(-c4ccc(F)cc4-c4nncn4C)cc(C4CC4)n3)c(=O)c2[nH]1` [Example 41, 5-{6-Cyclopropyl-4-[4-fluoro-2-(4-methyl-4H-1,2,4-triazol-3-yl)phenyl]-2-pyridyl}-2-(3-methoxypropyl)-7-(trifluoromethyl)-3,5-dihydro-1,3,5-triaza-4-indenone], on Cbl-b, the pIC50 was > 7.00. Further, the pEC50 in the assay on Jurkat cells was > 7.00.

On to `Cn1cnnc1-c1cc(F)ccc1-c1cc(C2CC2)nc(-n2cc(C(F)(F)F)c3nc(CC4CCC4)[nH]c3c2=O)c1` [Example 42, 2-(Cyclobutylmethyl)-5-{6-cyclopropyl-4-[4-fluoro-2-(4-methyl-4H-1,2,4-triazol-3-yl)phenyl]-2-pyridyl}-7-(trifluoromethyl)-3,5-dihydro-1,3,5-triaza-4-indenone], for which the pIC50 at Cbl-b is > 7.00. In addition, in the assay with Jurkat cells, the pEC50 is > 7.00.

In the case of `Cn1cnnc1-c1cc(F)ccc1-c1cc(C2CC2)nc(-n2cc(C(F)(F)F)c3nc(CC4CCCCC4)[nH]c3c2=O)c1` [Example 43, 2-(Cyclohexylmethyl)-5-{6-cyclopropyl-4-[4-fluoro-2-(4-methyl-4H-1,2,4-triazol-3-yl)phenyl]-2-pyridyl}-7-(trifluoromethyl)-3,5-dihydro-1,3,5-triaza-4-indenone], at Cbl-b, the negative-log IC50 (pIC50) is > 7.00. The pEC50 in the assay on Jurkat cells is > 7.00.
